Consider seven compounds from US20230357240A1, “NOVEL N-HETEROCYCLIC BET BROMODOMAIN INHIBITOR, AND PREPARATION METHOD THEREOF AND MEDICAL USE THEREOF” (Chengdu Easton Biopharmaceuticals Co., Ltd., priority 2020, published 2023).

Series [1] relates to MV4-11 cell. The series is described as follows: MV4-11 cell proliferation experiment (CCK-8 cell viability). It is filed as cell-based. The note with it: Homo sapiens, MV4-11 cells, 72-hour culture. How it is done:
EXAMPLE 9 Cell Experiment (MV4-11 Cell Proliferation Experiment)
Determination of Cell Viability with CCK-8 Reagent
(1) MV4-11 cell suspension was pipetted from a culture flask into a 15 mL centrifuge tube, and the cell suspension was centrifuged at 1000 rpm for 4 minutes.
(2) A supernatant in the centrifuge tube was discarded, and an appropriate amount of fresh complete medium (IMDM+10% FBS+1% P/S) was added to resuspend the cells. 20 μL of cell suspension was collected, 20 μL of trypan blue was added, and CounterStar was used for counting.
(3) A required cell suspension volume and complete medium volume were calculated according to viable cell density and the required number of plated cells. MV4-11 cells were plated at a density of 1*10^4 cells/well in 100 μL/well.
(4) 100 μL of the above cell suspension was pipetted into a 96-well plate by using an electric pipette. 150 μL of complete medium was added to blank control wells. PBS was added to peripheral wells of the 96-well plate, to avoid liquid evaporation. The 96-well plate was cultured overnight in an incubator.
Day 2: Compound Preparation:
(1) The compound of the present application dissolved in DMSO and the positive control substance ABBV-744 were fetched, and subjected to serial dilution (dilution in column A, column B, . . . , column J sequentially from left to right in a 96-well PCR plate).
An initial concentration of the solution in column A is 10 mM;
Column B: 2 μL of the solution in column A was diluted with 8 μL of DMSO to obtain a final concentration of 2000 μM;
Column C: 2 μL of the solution in column B was diluted with 8 μL of DMSO to obtain a final concentration of 400 μM;
Column D: 2 μL of the solution in column C was diluted with 8 μL of DMSO to obtain a final concentration of 80 μM;
Column E: 2 μL of the solution in column D was diluted with 8 μL of DMSO to obtain a final concentration of 16 μM;
Column F: 2 μL of the solution in column E was diluted with 8 μL of DMSO to obtain a final concentration of 3.2 μM;
Column G: 2 μL of the solution in column F was diluted with 8 μL of DMSO to obtain a final concentration of 0.64 μM;
Column H: 2 μL of the solution in column G was diluted with 8 μL of DMSO to obtain a final concentration of 0.128 μM;
Column I: 2 μL of the solution in column H was diluted with 8 μL of DMSO to obtain a final concentration of 0.0256 μM; and
Column J: 2 μL of the solution in column I was diluted with 8 μL of DMSO to obtain a final concentration of 0.00512 μM.
The suspension was centrifuged for 1 minute at 1000 rpm by using a low-speed centrifuge.
(2) 3×Compound Preparation: (Diluted in a 96-Well Cell Culture Plate)
3 μL of each of the solutions in columns B to J was pipetted into […] of complete medium by a 10 μL manual pipette to obtain 3×compound solutions with a final concentration of 30000, 6000, 1200, 240, 48, 9.6, 1.92, 0.384 and 0.0768 nM, respectively; and 3 μL of DMSO was pipetted into […] of complete medium as a control. The resulting 96-well cell culture plate was put on an oscillator to be oscillated at 500 rpm for 30 minutes.
(1) The prepared 3×compound solutions with the above concentrations were each pipetted by a manual pipette with its volume set to 50 μL into a corresponding well of the 96-well plate after overnight culture on the first day, and the total culture volume of each well was 150 μL. The final concentrations of the compounds in the 96-well plate were 10 μM, 2 μM, 400 nM, 80 nM, 16 nM, 3.2 nM, 0.64 nM, 0.128 nM and 0.0256 nM, respectively. The resulting 96-well plate was put on an oscillator to be oscillated at 500 rpm for 10 minutes.
(2) The 96-well plate as prepared was put in a CO2 incubator for 72-hour culture.
(1) CCK-8 test solution was pipetted into the 96-well cell culture plate in an amount of 15 μL/well by a pipette with a volume set to 15 μL.
(2) The 96-well plate was put in the CO2 incubator for 4-hour culture. […]

For series [2], the system named is MV4-11 xenograft tumor. The series is described as follows: In vivo efficacy test, MV4-11 xenograft tumor model in mice. The note with it: NOD-SCID mice, 5 mg/kg qd gavage, 14 days. The text has this:
EXAMPLE 11 In Vivo Efficacy Test of the Compound of the Present Application
Objective: To test the inhibitory effect of the test compound on the growth of xenograft tumor in nude mice with MV4-11 leukemia.
Method: NOD-SCID mice were subcutaneously inoculated with MV4-11 cells to establish an MV4-11 xenograft tumor model in mice. 16 days after inoculation (d16), average tumor volume was about 210 mm^3. According to the tumor volumes, the tumor-bearing mice were grouped in a random block method, with 6 mice in each group. The groups included a solvent control group, an ABBV-744 control group, and a test sample group, the dosage was 5 mg/kg mouse body weight, and the dose volume was 10 mL/kg mouse body weight, once a day. Each group was gavage administered for 14 consecutive days, and the solvent control group was gavage administered with a blank solvent (20% […] solution). Tumor volumes were measured twice weekly after administration of the test drug. The animals were euthanized after the test.

The target of series [3] is T1, hERG (Homo sapiens, UniProt Q12809).
T1 construct: expressed in transfected cells; host or cells: HEK293 cells stably expressing hERG
T1 sequence (Q12809 whole entry): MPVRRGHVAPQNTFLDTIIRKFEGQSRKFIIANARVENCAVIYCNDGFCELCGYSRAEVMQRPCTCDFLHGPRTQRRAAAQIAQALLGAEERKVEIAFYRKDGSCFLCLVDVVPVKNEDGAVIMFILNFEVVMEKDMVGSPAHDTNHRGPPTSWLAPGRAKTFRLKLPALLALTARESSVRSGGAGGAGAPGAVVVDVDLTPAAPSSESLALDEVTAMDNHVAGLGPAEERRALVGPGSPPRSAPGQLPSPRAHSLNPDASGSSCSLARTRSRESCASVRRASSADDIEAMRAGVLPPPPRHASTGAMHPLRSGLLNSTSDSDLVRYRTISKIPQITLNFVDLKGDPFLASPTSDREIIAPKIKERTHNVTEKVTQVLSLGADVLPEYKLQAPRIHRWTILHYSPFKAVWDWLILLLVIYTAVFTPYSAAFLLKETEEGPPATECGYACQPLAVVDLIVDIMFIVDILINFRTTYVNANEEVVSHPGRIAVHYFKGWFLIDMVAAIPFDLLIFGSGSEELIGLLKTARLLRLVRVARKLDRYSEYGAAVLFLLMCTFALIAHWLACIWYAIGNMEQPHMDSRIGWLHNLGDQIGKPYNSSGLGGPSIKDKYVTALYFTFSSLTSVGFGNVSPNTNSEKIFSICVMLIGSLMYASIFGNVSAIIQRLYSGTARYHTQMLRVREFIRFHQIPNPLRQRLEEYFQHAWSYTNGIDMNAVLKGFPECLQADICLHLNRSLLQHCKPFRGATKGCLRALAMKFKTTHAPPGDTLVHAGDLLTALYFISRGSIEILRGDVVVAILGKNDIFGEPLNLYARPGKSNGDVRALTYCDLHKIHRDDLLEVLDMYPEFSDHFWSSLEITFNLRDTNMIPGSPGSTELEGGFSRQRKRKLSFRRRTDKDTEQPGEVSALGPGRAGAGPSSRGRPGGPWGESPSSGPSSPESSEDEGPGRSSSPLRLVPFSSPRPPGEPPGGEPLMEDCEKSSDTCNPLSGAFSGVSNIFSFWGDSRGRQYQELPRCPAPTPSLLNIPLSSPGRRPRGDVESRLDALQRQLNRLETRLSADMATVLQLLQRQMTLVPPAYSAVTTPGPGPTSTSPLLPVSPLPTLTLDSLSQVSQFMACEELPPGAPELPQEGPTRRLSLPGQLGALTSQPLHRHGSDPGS
The series is described as follows: hERG inhibition test, whole-cell patch clamp in HEK293 cells stably expressing the hERG ion channel. Type of series: cell-based. Conditions: human, HEK293 cells stably expressing the hERG ion channel. How it is done:
(§1) An hERG current was recorded by the whole-cell patch clamp technique. A suspension of HEK293 cells stably expressing the hERG ion channel was added to a 35 mm culture dish, and the culture dish was put on a stage of an inverted microscope. […] The pulse program was repeated every 15 seconds throughout the whole test. After the current became stable, the administration method of continuous extracellular perfusion from low concentration to high concentration was used, and the perfusion started from low concentration and continued until the drug effect was stable, and then the perfusion of the next concentration was performed.
(§2) After the test, stimulus release and signal acquisition were carried out through PatchMaster software. Graphpad Prism 8.0 was used for further data analysis and curve fitting. Effects of each compound at different concentrations were represented with an inhibition rate of the tail current. Inhibition rate=(peak tail current before administration—peak tail current after administration)/peak tail current before administration x 100%. Half-maximal inhibitory concentration IC50 of the test samples was obtained by the fitting analysis with Hill equation.

In series [4] the target is T2, hERG ion channel (Homo sapiens, UniProt Q12809).
T2 construct: expressed in transfected cells; host or cells: HEK293 cells stably expressing hERG
T2 sequence (Q12809 whole entry): as above
Described as above. Type of series: cell-based. The note with it: tail current, Hill equation fit. The procedure: as §1, §2

[5] abbreviates: read-out: Average hERG inhibition rate.
The mark [6] stands for this setting: read-out: hERG Inhibition rate, Cell 1.
Setting [7] is: read-out: hERG Inhibition rate, Cell 2.

Where two headings read alike, the source gives them in different places.

`CCNC(=O)c1cc2c(-c3cc(C(C)(C)O)ccc3Oc3c(C)cc(F)cc3C)cn(C)c(=O)c2[nH]1` [ABBV-744, reference compound]: half-maximal inhibition in series [1] (IC50) required 7.22 nM. In addition, the “Relative tumor proliferation rate T/C” value in series [2] worked out at 45.98%. For the same compound, in series [3] (setting [5]), the inhibition at 0.37 µM came out at 5.35%, the inhibition at 1.11 µM was determined as 17.4%, the inhibition at 3.33 µM was found to be 54.7% and the inhibition at 10 µM was determined as 87.6%. The inhibition at 30 µM in series [3] (setting [5]) came out at 99.1%. Also, in series [3] (setting [6]), the inhibition at 0.37 µM was found to be 8.24%, the inhibition at 1.11 µM worked out at 23%, the inhibition at 3.33 µM is 57.7% and the inhibition at 10 µM is 87.9%. The inhibition at 30 µM in series [3] (setting [6]) stood at 99.4%. In addition, in series [3] (setting [7]), the inhibition at 0.37 µM turned out to be 2.46%, the inhibition at 1.11 µM is 11.8%, the inhibition at 3.33 µM is 51.7% and the inhibition at 10 µM was found to be 87.3%. Moreover, in series [3] (setting [7]), the inhibition at 30 µM stood at 98.7%. The IC50 in series [4] was found to be 3120 nM.

On to `CCNC(=O)c1cc2c(-c3sc(C(C)(C)O)cc3N3CCc4cccc(F)c43)cn(C)c(=O)c2[nH]1` [Compound 2, N-ethyl-4-(3-(7-fluoroindolin-1-yl)-5-(2-hydroxypropyl-2-yl)thiophen-2-yl)-6-methyl-7-oxo-6,7-dihydro-1H-pyrrolo[2,3-c]pyridine-2-carboxamide], for which the IC50 in series [1] came out at 24.2 nM.

In turn, `CCNC(=O)c1cc2c(-c3sc(C(C)(C)O)cc3N3CCc4cccc(C)c43)cn(C)c(=O)c2[nH]1` [Compound 3, N-ethyl-4-(5-(2-hydroxypropyl-2-yl)-3-(7-methylindolin-1-yl)thiophen-2-yl)-6-met hyl-7-oxo-6,7-dihydro-1H-pyrrolo[2,3-c]pyridine-2-carboxamide] gave an IC50 in series [1] of 39.8 nM.

Compound `CCNC(=O)c1cc2c(-c3sc(C(C)(C)O)cc3N3CCc4cc(F)ccc43)cn(C)c(=O)c2[nH]1` [Compound 4, N-ethyl-4-(3-(5-fluoroindolin-1-yl)-5-(2-hydroxypropyl-2-yl)thiophen-2-yl)-6-methyl-7-oxo-6,7-dihydro-1H-pyrrolo[2,3-c]pyridine-2-carboxamide] gave an IC50 in series [1] of 6.3 nM. This IC50 is about 6.3-fold lower than that of the compound before.

As to `CCNC(=O)c1cc2c(-c3sc(C(C)(C)O)cc3N3CCc4cc(C(F)(F)F)ccc43)cn(C)c(=O)c2[nH]1` [Compound 5, N-ethyl-4-(5-(2-hydroxypropyl-2-yl)-3-(5-trifluoromethylindolin-1-yl)thiophen-2-y I)-6-methyl-7-oxo-6,7-dihydro-1H-pyrrolo[2,3-c]pyridine-2-carboxamide], in series [1], it took 12.1 nM to reach half-maximal inhibition (IC50).

`CCNC(=O)c1cc2c(-c3sc(C(C)(C)O)cc3N3CCCc4cc(F)ccc43)cn(C)c(=O)c2[nH]1` [Compound 6, N-ethyl-4-(5-(2-hydroxypropyl-2-yl)-3-(6-fluoro-3,4-dihydroquinolin-1(2H)-yl)thiophen-2-yl)-6-methyl-7-oxo-6,7-dihydro-1H-pyrrolo[2,3-c]pyridine-2-carboxamide] yielded an IC50 in series [1] of 8.2 nM.

Regarding `CCNC(=O)c1cc2c(-c3sc(C(C)(C)O)cc3N3CCc4cccc(C(F)(F)F)c43)cn(C)c(=O)c2[nH]1` [Compound 7, N-ethyl-4-(5-(2-hydroxypropyl-2-yl)-3-(7-(trifluoromethyl)indolin-1-yl)thiophen-2-yl)-6-methyl-7-oxo-6,7-dihydro-1H-pyrrolo[2,3-c]pyridine-2-carboxamide], half-maximal inhibition in series [1] (IC50) was put at 17.3 nM.
